Entries after “also recorded” stand apart in the source; their conditions may differ.
How the values were obtained:
Format in all cases: cell-based
[1] = target: T1, green fluorescent protein tagged-GR (GFP-GR) (Rattus norvegicus, UniProt P06536, C656G); assay: GFP-GR system, biorecognition (nuclear translocation of GFP tagged GR); conditions: fluorescence microscopy, 37° C., Mce6 at 20 μM and 30 μM, images up to 30 minutes
T1 construct: expressed in transfected cells
T1 sequence (P06536 1-795 C656G): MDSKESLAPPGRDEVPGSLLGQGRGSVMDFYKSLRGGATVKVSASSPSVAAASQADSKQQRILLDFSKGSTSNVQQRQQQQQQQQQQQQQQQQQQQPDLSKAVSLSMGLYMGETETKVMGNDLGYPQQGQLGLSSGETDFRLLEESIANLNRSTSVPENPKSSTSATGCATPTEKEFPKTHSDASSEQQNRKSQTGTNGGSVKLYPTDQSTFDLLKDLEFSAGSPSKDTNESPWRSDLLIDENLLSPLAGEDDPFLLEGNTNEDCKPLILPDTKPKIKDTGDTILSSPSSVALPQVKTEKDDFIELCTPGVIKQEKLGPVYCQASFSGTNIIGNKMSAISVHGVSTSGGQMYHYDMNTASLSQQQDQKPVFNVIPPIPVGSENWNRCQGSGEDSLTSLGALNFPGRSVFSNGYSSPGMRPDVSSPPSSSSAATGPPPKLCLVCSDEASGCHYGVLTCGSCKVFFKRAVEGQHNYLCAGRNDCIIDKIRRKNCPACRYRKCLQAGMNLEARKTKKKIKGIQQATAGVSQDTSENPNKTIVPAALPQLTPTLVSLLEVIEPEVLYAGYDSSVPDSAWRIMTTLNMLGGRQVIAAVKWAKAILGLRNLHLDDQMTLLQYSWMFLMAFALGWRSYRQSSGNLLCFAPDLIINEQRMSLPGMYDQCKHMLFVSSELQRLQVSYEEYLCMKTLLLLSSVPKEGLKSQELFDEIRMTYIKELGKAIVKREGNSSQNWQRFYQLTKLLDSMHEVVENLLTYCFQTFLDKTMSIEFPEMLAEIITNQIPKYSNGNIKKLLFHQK
Procedure: This system involves the generation of GFP labeled GR in the cell. The cells are then treated with the drug and the change in the localization of the fluorescently tagged GR is followed. Cells were transfected with GFP-GR plasmids as previously. Briefly, 5×10^6 cells were transfected with 2 μg of the GFP-GR plasmid plus carrier DNA using an Electrosquare porator ECM 830 system (BTX, San Diego, Calif.). The electroporation was performed using 3 pulses each of 135 V for 10 milliseconds, […]. Cells were allowed to recover on ice for 5 minutes and were then diluted with phenol red-free DMEM with 10% charcoal stripped FBS and plated on a clear cover glass (Corning no. 1, 22 mm^2) into live cell chambers (Lab-Tek II chambered cover glass with cover). These cells were incubated in cell culture conditions for 24 hrs. […] The import of GFP-receptor-conjugate complexes was monitored using an Olympus IX701F inverted fluorescence microscope and an EGFP filter set (Chroma Technology Corp.) (exciter 480 nm, emitter 510 nm, beam splitter 495 nm). Cells were maintained at 37° C. using a Nevtek ASI 400 Air Stream Incubator (variable temperature control) attached to a temperature probe as previously. Cells were photographed using an F-View Monochrome CCD camera.

[2] = tested on: nucleus (DAPI nuclear marker); assay: Confocal fluorescence microscopy, subcellular localization; conditions: 24 hours incubation at 37° C.
Procedure: Subcellular localization was determined using confocal fluorescence microscopy. 150000 cells were seeded on previously sterilized glass coverslips in 35 mm dishes 24 hours before incubation with the drug. […] The cells were then fixed with 3% paraformaldehyde for 20 minutes at room temperature. DAPI (4′,6-diamidino-2-phenylindole) (600 nM) was incubated with the cells and used as a nuclear marker. The cells were mounted with SlowFade Light Antifade medium (Molecular Probes, Eugene, Oreg.) and sealed as described previously. The cells were then imaged on a Zeiss (Thornwood, N.Y.) LSM 510 confocal imaging system with an Axioplan 2 microscope (100× plan-apo objective, NA=1.4, oil) and a titanium sapphire multiphoton laser (mesochlorin, excitation 800 nm, emission 650 nm low pass filter; DAPI, excitation 800 nm, emission 461 nm band pass filter). The settings for all the confocal systems were adjusted so that control cells yielded dark images.
In these images, DAPI is represented by […] fluorescence. […] Mce6 is stained red in color. […] These two windows separately indicate the subcellular localization of Mce6 and DAPI respectively. These 2 windows are superimposed in window D to display a composite image.

[3] = tested on: murine adenocarcinoma (1471.1) cells; assay: Cytotoxicity after illumination, WST-8 assay; conditions: incubated 4 hours, DMEM with 10% charcoal stripped FBS, illuminated 30 min, Mce6 equivalents, read-out: IC50 (μM) (Mean ± SD)
Procedure: The IC50 (concentration that inhibits growth by 50%) was determined utilizing a WST-8 assay. Four thousand cells were seeded into 96 well plates and incubated overnight in a humidified atmosphere containing 5% CO2. […] The incubation period was 10 hours in the case of the HPMA copolymer-bound Mce6 conjugates. After the period of incubation, the media containing the drug was removed and 100 μL of fresh media was added and the cells were promptly illuminated for 30 min. The light source was three ENH Tungsten halogen lamps (120 V/250 W) placed in parallel, attenuated by three band-pass interference filters (Melles Griot Co., Carlsbad, Calif.). The light energy was approximately 2 mW cm^−2 as determined using a radiometer.
After illumination, the cells were incubated in a humidified atmosphere containing 5% CO2 for 24 hours. The media was replaced with 100 μL fresh media containing 10 μL of WST-8. After two hours incubation, the absorbance was read at 450 nm with background correction at 630 nm. Untreated cells served as 100% viable cells, whereas media served as background. Percentage of viable cells was calculated by dividing the mean absorbance of each well by the absorbance of the untreated cells. Linear regression was performed utilizing the linear portion of the growth inhibition curve to determine the IC50 dose.

GR = assay: MMTV luciferase assay; conditions: data not shown
[4] = listed as Cort-Lys-Mce6 derivative

| Substance | redistribution of GFP tagged GR from the cytoplasm to the nucleus [1] | redistribution of GFP tagged GR from the cytoplasm to the nucleus [1, 4] | subcellular localization of Mce6 fluorescence [2] | subcellular localization of Mce6 fluorescence [2, 4] | IC50 [3] | ability to bind the GR and induce nuclear translocation (GR) | redistribution of GFP tagged GR from the cytoplasm to the nucleus ([1]; disodium salt) | subcellular localization of Mce6 fluorescence ([2]; disodium salt) |
| --- | --- | --- | --- | --- | --- | --- | --- | --- |
| alpha-N-(Cortisol-C17-carbamoyl)-Lysyl-Mesochlorin ethyl amide [Cort-Lys-Mce6] | increase in the fluorescence level in the nucleus | able to shuttle GFP tagged GR from the cytoplasm to the nucleus | located in the cytoplasm and in the nucleus | colocalization of Mce6 and DAPI | 1.96 ± 0.17 µM | independently verified | – | – |
| Mesochlorin e6 monoethylene diamine disodium salt [Mce6, reference compound] | – | – | – | – | 5.3 ± 0.93 µM | – | cannot cause redistribution of the GFP tagged GR; also recorded: did not induce any change in the localization of the receptors | faint Mce6 fluorescence in the nucleus; also recorded: predominantly located in the cytoplasm |
